Assay results: patent US20250332173A1, “COMPOUNDS AND METHODS FOR MODULATING NUCLEIC ACID SPLICING” (REMIX THERAPEUTICS INC., priority 2021, published 2025)
Structures can show the parent of a compound that is named as a salt.

How the values were obtained:
[1] = test system: Target C; assay: HiBiT protein abundance assay, Target C (Promega Nano-Glo HiBiT Lytic Detection System, knock-in K562 cell line); assay type: cell-based, human; details: Homo sapiens, K562, 24 h, HiBiT K562 cell line, 24 hours, top dose 10 μM; read-out: Effect on protein abundance, Target C (IC50 category)
Summary of the method: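 HiBiT knock-in K562 cells (10,000/well) were treated for 24 h at 37 °C with a 10-point 3-fold dilution series, top final concentration 10 μM, DMSO ≤0.25%. Lytic HiBiT luminescence was read, normalized to unmodified K562 and DMSO-treated controls, and IC50 was interpolated from a four-parameter logistic fit.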

[2] = test system: Target C; assay: RT-qPCR splicing assay panel, Target C canonical junction (CJ) mRNA; assay type: cell-based, human; details: Homo sapiens; Table 5 panel; canonical junction qPCR; compound concentration having 50% response in CJ decrease; read-out: Target C IC50 (decrease in CJ mRNA levels)
Summary of the method: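 Exposure: 24 h, 37 °C, 11-point 3-fold dilutions from 10 uM final, DMSO at or below 0.25%, in A673 or K562 cells. Detection: cell-lysate RT-qPCR of canonical junction mRNA relative to GAPDH, GUSB or PPIA.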

[3] = test system: K562 (human chronic myelogenous leukemia) cells; assay: Cell Titer Glo 2.0 cell viability assay; assay type: cell-based; details: Homo sapiens, K562, 72 h, K562 cells, 72 hours, Cell Titer Glo 2.0; read-out: K562 GI50
[4] = test system: HTT; assay: HiBiT protein abundance assay, HTT HiBiT K562 cell line; assay type: cell-based, human; details: HiBiT K562 cell line, 24 hours, top dose 10 μM; read-out: Effect on protein abundance, HTT (IC50 category)
Summary of the method: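 Endogenous targets in K562 knock-in lines carried a HiBiT tag and were treated for 24 h at 37 °C with 10-point 3-fold dilutions (top 10 μM final, DMSO ≤0.25%). Abundance was read as lytic Nano-Glo HiBiT luminescence. IC50 came from a four-parameter logistic fit of normalized response.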

SMILES	IC50 [1] [nM]	IC50 [2] [nM]	GI50 [3] [nM]	IC50 [4] [nM]
Cc1cn2nc(-c3ccc4c(=O)n(C5CCNCC5)ccc4c3)cc(Oc3ccccc3F)c2n1 [Compound 544, 6-[8-(2-fluorophenoxy)-2-methyl-imidazo[1,2-b]pyridazin-6-yl]-2-(4-piperidyl) isoquinolin-1-one; hydrochloride]	< 100	< 100	100 to 1000	< 100
Cc1cn2nc(-c3ccc4c(=O)n(C5CCNCC5)ccc4c3)cc(Oc3ccccc3)c2n1 [Compound 519, 6-(2-methyl-8-phenoxy-imidazo[1,2-b]pyridazin-6-yl)-2-(4-piperidyl)isoquinolin-1-one]	< 100	< 100	< 100	< 100
CCN1CCC(n2ncc3cc(-c4cc(C)c5nc(C)cn5n4)cc(O)c3c2=O)CC1 [Compound 542]	< 100	100 to 1000	100 to 1000	< 100
Cc1cn2nc(-c3ccc4c(=O)n(C5CCNCC5)ccc4c3)cc(OCc3ccccc3)c2n1 [Compound 526, 6-(8-benzyloxy-2-methyl-imidazo[1,2-b]pyridazin-6-yl)-2-(4-piperidyl) isoquinolin-1-one]	100 to 1000	1000 to 10000	100 to 1000	100 to 1000
Cc1cn2nc(-c3ccc4c(=O)n(C5CCNCC5)ccc4c3)cc(C(=O)N(C)C)c2n1 [Compound 524, N, N, 2-trimethyl-6-[1-oxo-2-(4-piperidyl)-6-isoquinolyl]imidazo[1,2-b]pyridazine-8-carboxamide]	> 10000	> 10000	> 10000	> 10000
COc1cc(-c2ccc3c(=O)n(C4CCNCC4)ccc3c2)nn2cc(C)nc12 [Compound 514, 6-(8-methoxy-2-methyl-imidazo[1,2-b]pyridazin-6-yl)-2-(4-piperidyl) isoquinolin-1-one; hydrochloride]	< 100	< 100	< 100	< 100
CN(c1ccc2c(=O)n(-c3ccc4nn(C)cc4c3)cnc2c1)C1CCNCC1 [Compound 180]	> 10000	1000 to 10000	> 10000	> 10000
Cc1cn2nc(-c3cc(O)c4c(=O)n(C5CCN(C)CC5)ncc4c3)cc(C)c2n1 [Compound 543]	100 to 1000	100 to 1000	100 to 1000	< 100
Cc1cc(-c2ccc3c(=O)n(C4CCNC5(CC5)C4)ncc3c2)cc2cn(C)nc12 (stereo not shown) [Compound 512]	< 100	1000 to 10000	1000 to 10000	1000 to 10000
Cc1cn2nc(-c3ccc4c(=O)n(C5CCN(C)CC5)cnc4c3)cc(C)c2n1 [Compound 176]	1000 to 10000	1000 to 10000	1000 to 10000	1000 to 10000
Cc1cn2nc(-c3ccc4c(=O)n(C5CCNCC5)ccc4c3)cc(CC(=O)O)c2n1 [Compound 531, 2-[2-methyl-6-[1-oxo-2-(4-piperidyl)-6-isoquinolyl]imidazo[1,2-b]pyridazin-8-yl]acetic acid]	100 to 1000	100 to 1000	100 to 1000	< 100

More lines, now with the values ahead:

IC50 [1] [nM]	IC50 [2] [nM]	GI50 [3] [nM]	IC50 [4] [nM]	SMILES
< 100	< 100	< 100	< 100	Cc1cn2nc(-c3cc(F)c4c(=O)n(C5CCNCC5)ncc4c3)cc(Oc3ccccc3)c2n1 [Compound 548, 8-fluoro-6-(2-methyl-8-phenoxy-imidazo[1,2-b]pyridazin-6-yl)-2-(4-piperidyl)phthala-zin-1-one]
100 to 1000	100 to 1000	100 to 1000	< 100	Cc1cn2nc(-c3cc(O)c4c(=O)n(C5CCN(CCF)CC5)ncc4c3)cc(C)c2n1 [Compound 553]
1000 to 10000	1000 to 10000	1000 to 10000	100 to 1000	Cc1cn2cc(-c3cc(F)c4c(=O)n([C@@H]5C[C@@H](C)N[C@@H](C)C5)ccc4c3)cc(F)c2n1 [Compound 642, 2-[(2S,6R)-2,6-dimethyl-4-piperidyl]-8-fluoro-6-(8-fluoro-2-methyl-imidazo[1,2-a]pyridin-6-yl)isoquinolin-1-one]
100 to 1000	1000 to 10000	1000 to 10000	100 to 1000	Cc1cc(-c2cc(O)c3c(=O)n(C4CCNC5(CC5)C4)ncc3c2)cc2cn(C)nc12 (stereo not shown) [Compound 561]
> 10000	> 10000	1000 to 10000	1000 to 10000	CNc1cc(-c2cc(C)c3nc(C)cn3n2)cc2ccn([C@H]3CCNC3)c(=O)c12 [Compound 647, 6-(2,8-dimethylimidazo[1,2-b]pyridazin-6-yl)-8-(methylamino)-2-[(3S)-pyrrolidin-3-yl]isoquinolin-1-one]
100 to 1000	100 to 1000	< 100	< 100	C=Cc1cn(C2CCNCC2)c(=O)c2c(F)cc(-c3cc(F)c4nc(C)cn4c3)cc12 [Compound 559, 4-ethenyl-8-fluoro-6-{8-fluoro-2-methylimidazo[1,2-a]pyridin-6-yl}-2-(piperidin-4-yl)isoquinolin-1-one]
< 100	< 100	< 100	< 100	COc1cccc(Oc2cc(-c3ccc4c(=O)n(C5CCNCC5)ccc4c3)nn3cc(C)nc23)c1 [Compound 547, 6-[8-(3-methoxyphenoxy)-2-methyl-imidazo[1,2-b]pyridazin-6-yl]-2-(4 piperidyl) isoquinolin-1-one]
100 to 1000	100 to 1000	100 to 1000	< 100	Cc1cc(-c2cc(F)c3c(=O)n(C4CCNC5(CC5)C4)ncc3c2)cc2cn(C)nc12 (stereo not shown) [Compound 554]
